Columns and labels:
Assay type in all cases: cell-based, human
[1] = tested on: p-ERK in AGS cells (KRAS^G12D mutation); test: Cell p-ERK detection assay; conditions: 3 h incubation, HTRF
Protocol: AGS was purchased from ATCC; Cat. NO.: CRL-1739; F12K was purchased from Gibco; Cat. NO.: 21127-022; FBS was purchased from Gibco; Cat. NO.: 10099-141C; Trypsin (containing EDTA) was purchased from Gibco; Cat. NO.: 25200-072; DMSO was purchased from VWRAMRESCO; Cat. NO.: 0231-500ML; 96-well cell culture plate was purchased from Corning; Cat. NO.: 3599; An white background opaque 96-well plate was purchased from Cisbio; Cat. NO.: 66PL96025; Advance ERK phospho-T202/Y204 kit was purchased from Cisbio; Cat. NO.: 64AERPEH; Cell Counters were purchased from CHEMOMETEC; Model NO.: NC-200; microplate reader was purchased from PerkinElmer; Model NO.: Envison.
AGS is an endogenous human gastric adenocarcinoma cell line containing KRAS^G12D mutation, cultured in F12K+10% FBS medium. On the first day of the experiment, cells in the logarithmic growth phase were taken, digested with trypsin (containing EDTA), collected, and counted, and approximately 20,000 cells/well were inoculated in 96-well cell culture plates and cultured overnight in a 5% CO2 incubator. A 1000×3.16-fold gradient concentration stock of the compound was prepared using DMSO, diluted 200-fold into a 5× compound stock using the medium described above, and a 5× compound stock was added to each cell culture well the day after cell inoculating at a final concentration of 1× and a DMSO content of 0.1%. DMSO was used as an experimental control. After the compound was added and the incubation was continued for 3 h, the medium in the culture wells was removed, […] of cell lysis solution (from Advance ERK phospho-T202/Y204 kit, the same below) was added to each well, mixed well and incubated for 30 min, then […] of the mixed solution was transferred to a white background opaque 96-well plate, and another well was taken as a blank well with adding […] of cell lysis solution. After the transfer, […] of p-ERK HTRF antibody mixed solution (from Advance ERK phospho-T202/Y204 kit) was added to each well, after incubation for 4 h, HTRF fluorescence value (RLU) was read by a microplate reader, and p-ERK level inhibition ratio of the compound was calculated IR (%)=(RLU control-RLU compound)/(RLU control-RLU blank)×100%, compound concentration and corresponding cell p-ERK level inhibition ratio were fitted using Prism 8 four-parameter method, and IC50 value was calculated.

[2] = tested on: AsPC-1 cells (KRAS^G12D mutation); test: Cell proliferation inhibition assay (3D, CellTiter-Glo), AsPC-1; conditions: Homo sapiens, ASPC1, 120 h, 3D cell model, 5 days
Description: (§1) AsPC-1 was purchased from ATCC; Cat. NO.: CRL-1682; AGS was purchased from ATCC; Cat. NO.: CRL-1739; RPMI1640 was purchased from Gibco; Cat. NO.: 11875-093 2235123; F12K was purchased from Gibco; Cat. NO.: 21127-022; FBS was purchased from Gibco; Cat. NO.: 10099-141C; Trypsin (containing EDTA) was purchased from Gibco; Cat. NO.: 25200-072; CellTiter Glo-3D was purchased from Progema; Cat. NO.: G9683; 384-well sphere plates were purchased from coming; Cat. NO.: 3830; White background opaque 384-well plates were purchased from coming; Cat. NO.: 3570; Cell Counters were purchased from CHEMOMETEC; Model NO.: NC-200; microplate reader was purchased from PerkinElmer; Model NO.: Envison;
(§2) AsPC-1 is an endogenous human pancreatic cancer cell containing KRAS^G12D mutation, which is cultured in RPMI-1640 medium containing 10% FBS; AGS human gastric cancer cell line containing KRAS^G12D mutation, cultured in F-12K medium containing 10% FBS. Cells in the logarithmic growth phase were taken, digested with trypsin (containing EDTA), harvested and counted, and inoculated with 800 AsPC-1 cells/well or 400 AGS cells/well, respectively, in 384-well sphere plates and cultured overnight at 5% C02 to establish a 3D cell model. A 3.16-fold gradient concentration stock solution of 1000× compound was prepared using DMSO, diluted 100-fold into a 10× compound stock solution using media, and a 10× compound stock solution was added to each cell culture well the day after cell inoculating at a final concentration of 1× with a DMSO content of 0.1%. DMSO was used as an experimental control (control) and culture medium as a blank control (blank). After the addition of compounds, the cells were cultured for 5 days. […] CellTiter-Glo working solution was added to each well, mixed well, and incubated for 30 min. After standing for 30 min at room temperature, 40 μl of the mixed solution was transferred to a white background opaque 384-well plate. Luminescence chemiluminescence value was read on a microplate reader, and the cell proliferation inhibition ratio was calculated, IR (%)=(RLU control-RLU compound)/(RLU control-RLU blank)×100%. XLFit four-parameter method was used to fit the gradient dilution concentration of compounds and the corresponding cell proliferation inhibition ratio, and the IC50 value was calculated. […] Results for exemplary of the example compounds are shown in Table 3 below. - indicates not detected.

[3] = tested on: AGS cells (KRAS^G12D mutation); test: Cell proliferation inhibition assay (3D, CellTiter-Glo), AGS; conditions: Homo sapiens, AGS, 120 h, 3D cell model, 5 days
Description: as §1, §2

Row | IC50 [1] [nM] | SMILES | IC50 ([1]; Homo sapiens, AGS, 3 h) [nM] | IC50 [2] [nM] | IC50 [3] [nM]
1 | – | C#Cc1cccc2cccc(-c3c(Cl)cc4c(N5C[C@H]6CC[C@@H](C5)N6)nc(OCC56CCCN5CC(=C)C6)nc4c3F)c12 (stereo partly drawn) [Example Z193, 4-((1R,5S)-3,8-diazabicyclo[3.2.1]octan-3-yl)-6-chloro-7-(8-ethynylnaphthalen-1-yl)-8-fluoro-2-((2-methylenetetrahydro-1H-pyrrolizin-7a(5H)-yl)methoxy)quinazoline] | 623 | – | –
2 | – | C#Cc1c(F)ccc2cc(O)cc(-c3ncc4c(N5C[C@H]6CC[C@@H](C5)N6)nc(OC[C@@]56CCCN5CC(=C)C6)nc4c3F)c12 [Example Z12, 4-(4-((1R,5S)-3,8-diazabicyclo[3.2.1]octan-3-yl)-8-fluoro-2-(((S)-2-methylenetetrahydro-1H-pyrrolizin-7a(5H)-yl)methoxy)pyrido[4,3-d]pyrimidin-7-yl)-5-ethynyl-6-fluoronaphthalen-2-ol] | 1.83 | 12.5 | 2.8
3 | – | C#Cc1cccc2cc(O)cc(-c3ncc4c(N5C[C@H]6CC[C@@H](C5)N6)nc(OCC56CCCN5CC(=C)C6)nc4c3F)c12 (stereo partly drawn) [Example Z8, 4-(4-((1R,5S)-3,8-diazabicyclo[3.2.1]octan-3-yl)-8-fluoro-2-((2-methylenetetrahydro-1H-pyrrolizin-7a(5H)-yl)methoxy)pyrido[4,3-d]pyrimidin-7-yl)-5-ethynylnaphthalen-2-ol] | 2.78 | 57.7 | 5.3
4 | – | C#Cc1c(Cl)ccc2cc(O)cc(-c3ncc4c(N5C[C@H]6CC[C@@H](C5)N6)nc(OCC56CC(=C)CN5CC(=C)C6)nc4c3F)c12 [Example Z216, 4-(4-((1R,5S)-3,8-diazabicyclo[3.2.1]octan-3-yl)-2-((2,6-dimethylenetetrahydro-1H-pyrrolizin-7a(5H)-yl)methoxy)-8-fluoropyrido[4,3-d]pyrimidin-7-yl)-6-chloro-5-ethynylnaphthalen-2-ol] | 1.22 | 43.7 | 3.14
5 | 464 | C#Cc1cccc2c(N)ccc(-c3ncc4c(N5CC6CCC(C5)N6)nc(OCC56CC(=C)CN5CC(=C)C6)nc4c3F)c12 [Example Z209] | – | – | –
6 | – | C#Cc1cccc2c(O)ccc(-c3ncc4c(N5C[C@H]6CC[C@@H](C5)N6)nc(OCC56CC(=C)CN5CC(=C)C6)nc4c3F)c12 [Example Z208, 4-(4-((1R,5S)-3,8-diazabicyclo[3.2.1]octan-3-yl)-2-((2,6-dimethylenetetrahydro-1H-pyrrolizin-7a(5H)-yl)methoxy)-8-fluoropyrido[4,3-d]pyrimidin-7-yl)-5-ethynylnaphthalen-1-ol] | 9.04 | – | –
7 | – | C#Cc1cccc2nc(N)cc(-c3ncc4c(N5CC6CCC(C5)N6)nc(OCC56CC(=C)CN5CC(=C)C6)nc4c3F)c12 [Example Z201, 4-(4-(3,8-diazabicyclo[3.2.1]octan-3-yl)-2-((2,6-dimethylenetetrahydro-1H-pyrrolizin-7a(5H)-yl)methoxy)-8-fluoropyrido[4,3-d]pyrimidin-7-yl)-5-ethynylquinolin-2-amine] | 238 | – | –
8 | 206 | C#Cc1cccc2cc(O)cc(-c3ncc4c(N5C[C@H]6CC[C@@H](C5)[C@H]6O)nc(OC[C@@]56CCCN5C[C@H](F)C6)nc4c3F)c12 [Example Z205-2, (1R, 5S, 8S)-3-(7-(8-ethynyl-3-hydroxynaphthalen-1-yl)-8-fluoro-2-(((2R,7aS)-2-fluorotetrahydro-1H-pyrrolizin-7a(5H)-yl)methoxy)pyrido[4,3-d]pyrimidin-4-yl)-3-azabicyclo[3.2.1]octan-8-ol] | – | – | –
9 | 93.5 | C#Cc1cccc2cc(O)cc(-c3ncc4c(N5CC6CCC(C6)C5)nc(OC[C@@]56CCCN5C[C@H](F)C6)nc4c3F)c12 [Example Z192, 4-(4-((1R,5S)-3-azabicyclo[3.2.1]octan-3-yl)-8-fluoro-2-(((2R,7aS)-2-fluorotetrahydro-1H-pyrrolin-7a(5H)-yl)methoxy)pyrido[4,3-d]pyrimidin-7-yl)-5-ethynylnaphthalen-2-ol] | – | – | –
10 | – | C#Cc1cccc2cc(O)cc(-c3ncc4c(N5C[C@H]6CC[C@@H](C5)N6)nc(OCC56CC(=C)CN5[C@@H]5C[C@@H]5C6)nc4c3F)c12 (stereo partly drawn) [Example Z26, 4-(4-((1R,5S)-3,8-diazabicyclo[3.2.1]octan-3-yl)-8-fluoro-2-(((1aR,6aR)-4-methylenehexahydrocyclopropa[b]pyrrolizin-5a(3H)-yl)methoxy)pyrido[4,3-d]pyrimidin-7-yl)-5-ethynylnaphthalen-2-ol] | 2.76 | – | –
11 | – | C#Cc1cccc2cc(O)cc(-c3cc4nc(OCC56CCCN5CC(=C)C6)nc(N5CC6CCC(C5)N6)c4cn3)c12 (stereo not drawn) [Example Z191, 4-(4-(3,8-diazabicyclo[3.2.1]octan-3-yl)-2-((2-methylenetetrahydro-1H-pyrrolizin-7a(5H)-yl)methoxy)pyrido[4,3-d]pyrimidin-7-yl)-5-ethynylnaphthalen-2-ol] | 612 | – | –
12 | 612 | C#Cc1cccc2cc(O)cc(-c3ncc4c(N5C[C@H]6CC[C@@H](C5)[C@@H]6O)nc(OC[C@@]56CCCN5C[C@H](F)C6)nc4c3F)c12 [Example Z205-1, (1R,5S,8R)-3-(7-(8-ethynyl-3-hydroxynaphthalen-1-yl)-8-fluoro-2-(((2R,7aS)-2-fluorotetrahydro-1H-pyrrolizin-7a(5H)-yl)methoxy)pyrido[4,3-d]pyrimidin-4-yl)-3-azabicyclo[3.2.1]octan-8-ol] | – | – | –
13 | – | C#Cc1c(Cl)ccc2cccc(-c3ncc4c(N5C[C@H]6CC[C@@H](C5)N6)nc(OCC56CC(=C)CN5CC(=C)C6)nc4c3F)c12 [Example Z195, 4-((1R,5S)-3,8-diazabicyclo[3.2.1]octan-3-yl)-7-(7-chloro-8-ethynylnaphthalen-1-yl)-2-((2,6-dimethylenetetrahydro-1H-pyrrolizin-7a(5H)-yl)methoxy)-8-fluoropyrido[4,3-d]pyrimidine] | 162 | – | –
14 | 89.7 | C#Cc1cc(F)cc2cccc(-c3ncc4c(N5CC6CCC(C5)N6)nc(OCC56CC(=C)CN5CC(=C)C6)nc4c3F)c12 [Example Z198] | – | – | –
15 | – | C#Cc1cccc2c(F)c(O)cc(-c3ncc4c(N5CC6CCC(C5)N6)nc(OCC56CC(=C)CN5CC(=C)C6)nc4c3F)c12 [Example Z203, 4-(4-(3,8-diazabicyclo[3.2.1]octan-3-yl)-2-((2,6-dimethylenetetrahydro-1H-pyrrolizin-7a(5H)-yl)methoxy)-8-fluoropyrido[4,3-d]pyrimidin-7-yl)-5-ethynyl-1-fluoronaphthalen-2-ol] | 25.6 | – | –
